In patent US4994485A, “Thio compounds having fungicidal activity” (Duphar International Research B.V., priority 1986, dated 1991):

Assays:
Format in all cases: cell-based
[1] = system: Fusarium culmorum; assay: In vitro test on activity against Fusarium culmorum; conditions: read-out: growth inhibition of the fungus
[2] = system: Pythium splendens; assay: In vitro test on activity against Pythium splendens; conditions: Globisporangium splendens, read-out: growth inhibition of the fungus
[3] = system: Leptosphaeria nodorum; assay: In vitro test on activity against Leptosphaeria nodorum; conditions: Parastagonospora nodorum, read-out: growth inhibition of the fungus
Method: The compound to be tested is processed in a culture medium consisting of 1% by weight of glucose, 0.2% by weight of a yeast extract (marmite), 0.5% by weight of a protein (pepton), 2.5% by weight of agar-agar, and 95.8% by weight of water, in petri dishes in concentrations of 3 and 10 ppm. The petri dishes are inoculated with the plant-pathogenic fungus Pyrenophora graminea and then kept at a temperature of 20° C. After 48 hours the growth-inhibiting activity of the compounds is determined visually. For comparison, the known substance (b) (see EXAMPLE XV) is also tested.
Compounds according to the invention are tested on i Leptosphaeria nodorum in the same manner as described in EXAMPLE XIX.

| SMILES | inhibition at 30 ppm [1] | inhibition at 10 ppm [2] | inhibition at 30 ppm [3] |
| --- | --- | --- | --- |
| C[S+]([O-])c1sc2cccc(Cl)c2c1C#N (stereo not drawn) [(11), 2-methylsulphinyl-3-cyano-4-chloro-benzothiophene] | ≥ 75% |  |  |
| CCS(=O)(=O)c1sc(C#N)cc1C#N [(16), 2-ethylsulphonyl-3,5-dicyanothiophene] |  | ≥ 95% |  |
| CC[S+]([O-])c1sc(C(C)=O)c(NC)c1C#N (stereo not drawn) [(17), 2-ethylsulphinyl-3-cyano-4-N-methylamino-5-acetylthiophene] |  | ≥ 95% | ≥ 85% |
| CCS(=O)(=O)c1sc(C(C)=O)c(Cl)c1C#N [(18), 2-ethylsulphonyl-3-cyano-4-chloro-5-acetylthiophene] |  | ≥ 95% |  |
| CC[S+]([O-])c1sc2cc(Cl)ccc2c1C#N (stereo not drawn) [(20), 2-ethylsulphinyl-3-cyano 6-chloro-benzothiophene] |  |  | ≥ 85% |
| CCS(=O)(=O)c1sc(C(C)=O)cc1C#N [(21), 2-ethylsulphonyl-3-cyano-5-acetylthiophene] |  | ≥ 95% |  |
| CCS(=O)(=O)c1sc(C#N)c(Cl)c1C#N [(22), 2-ethylsulphonyl-3,5 dicyano-4-chlorothiophene] | ≥ 75% | ≥ 95% |  |
| CC[S+]([O-])c1sc(C(C)=O)c(OC)c1C#N (stereo not drawn) [(23), 2-ethylsulphinyl-3-cyano-4-methoxy-5-acetylthiophene] | ≥ 75% |  | ≥ 85% |
| COc1c(C(C)=O)sc([S+](C)[O-])c1C#N (stereo not drawn) [(25), 2-methylsulphinyl-3-cyano-4-methoxy-5-acetylthiophene] |  | ≥ 95% |  |
| C[S+]([O-])c1sc(C=O)c(-c2ccc(Cl)cc2)c1C#N (stereo not drawn) [(26), 2-methylsulphinyl-3-cyano-4-(4-chlorophenyl)-5-formylthiophene] |  | ≥ 95% |  |
| C[S+]([O-])c1sc(C=O)cc1C#N (stereo not drawn) [(28), 2-methylsulphinyl-3-cyano-5-formylthiophene] |  | ≥ 95% |  |
| CCOC(=O)c1sc([S+](C)[O-])c(C#N)c1N (stereo not drawn) [(29), 2-methylsulphinyl-3-cyano-4-amino-5-ethoxycarbonylthiophene] | ≥ 75% |  |  |
| C[S+]([O-])c1sc(C(=O)c2ccccc2)cc1C#N (stereo not drawn) [(30)] |  | ≥ 95% |  |
| CCOC(=O)c1sc([S+]([O-])CC)c(C#N)c1Cl (stereo not drawn) [(37), 2-ethylsulphinyl 3-cyano-4-chloro-5-ethoxycarbonylthiophene] | ≥ 75% |  | ≥ 85% |
| CCCCCC[S+]([O-])c1sc(C#N)c(N)c1C#N (stereo not drawn) [(38), 2-n-hexylsulphinyl-3,5-dicyano-4-aminothiophene] | ≥ 75% |  |  |
| CCCC[S+]([O-])c1sc(C(C)=O)cc1C#N (stereo not drawn) [(44), 2-n-butylsulphinyl-3-cyano-5-acetylthiophene] | ≥ 75% |  | ≥ 85% |
| CC[S+]([O-])c1sc(C#N)c(N)c1C#N (stereo not drawn) [(46), 2-ethylsulphinyl-3,5-dicyano-4-aminothiophene] |  | ≥ 95% |  |
| C[S+]([O-])c1sc(C=O)c(N)c1C#N (stereo not drawn) [(48), 2-methylsulphinyl-3-cyano-4-amino-5-formylthiophene] |  | ≥ 95% |  |
| CC[S+]([O-])c1sc(C=O)c(N)c1C#N (stereo not drawn) [(49), 2-ethylsulphinyl-3-cyano-4-amino-5-formylthiophene] |  | ≥ 95% |  |
| CC[S+]([O-])c1sc(C=O)c(Cl)c1C#N (stereo not drawn) [(50), 2-ethylsulphinyl-3-cyano-4-chloro-5-formylthiophene] |  | ≥ 95% |  |
| CC[S+]([O-])c1sc(C#N)c(N(C)C(C)=O)c1C#N (stereo not drawn) [(54), 2-ethylsulphinyl-3,5-dicyano-4-(N-acetyl-N-methylamino)thiophene] |  | ≥ 95% |  |

| SMILES | inhibition at 30 ppm [1] | inhibition at 10 ppm [2] | inhibition at 30 ppm [3] |
| --- | --- | --- | --- |
| CCC[S+]([O-])c1sc(C#N)c(OC)c1C#N (stereo not drawn) [(55), 2-n-propylsulphinyl-3,5-dicyano-4-methoxythiophene] | ≥ 75% | ≥ 95% |  |
| CC[S+]([O-])c1sc(C=O)c(C)c1C#N (stereo not drawn) [(56), 2-ethylsulphinyl-3-cyano-4-methyl-5-formylthiophene] |  | ≥ 95% |  |
| CCC[S+]([O-])c1sc(C(C)=O)c(N)c1C#N (stereo not drawn) [(57), 2-n-propylsulphinyl-3-cyano-4-amino-5-acetylthiophene] | ≥ 75% | ≥ 95% |  |
| CC(=O)COc1c(C(C)=O)sc([S+](C)[O-])c1C#N (stereo not drawn) [(59), 2-methylsulphinyl-3-cyano-4-acetylmethoxy-5-acetylthiophene] |  | ≥ 95% |  |
| C[S+]([O-])c1sc(S(C)(=O)=O)cc1C#N (stereo not drawn) [(60), 2-methylsulphinyl-3-cyano-5-methylsulphonylthiophene] |  | ≥ 95% |  |
| CCC[S+]([O-])c1sc(C(C)=O)c(Cl)c1C#N (stereo not drawn) [(61), 2-n-propylsulphinyl-3-cyano-4-cloro-5-acetylthiophene] | ≥ 75% | ≥ 95% |  |
| CCC[S+]([O-])c1sc(C(C)=O)c(C)c1C#N (stereo not drawn) [(62), 2-n-propylsulphinyl-3-cyano-4-methyl-5-acetylthiophene] | ≥ 75% |  |  |
| CC[S+]([O-])c1sc(C#N)c(C)c1C#N (stereo not drawn) [(63), 2-ethylsulphinyl-3,5-dicyano-4-methylthiophene] |  |  | ≥ 85% |
| CC[S+]([O-])c1sc(C(=O)c2ccccc2)cc1C#N (stereo not drawn) [(64), 2-ethylsulphinyl-3-cyano-5-benzoylthiophene] | ≥ 75% |  | ≥ 85% |
| CC[S+]([O-])c1sc(C#N)c(-n2cncn2)c1C#N (stereo not drawn) [(68), 2-ethylsulphinyl-3,5-dicyano-4-(1,2,4-triazol-1-yl)thiophene] |  | ≥ 95% |  |
| CC[S+]([O-])c1sc(C#N)c(-n2ccnc2)c1C#N (stereo not drawn) [(69), 2-ethylsulphinyl-3,5-dicyano-4-(imidazol-1-yl)thiophene] |  | ≥ 95% |  |
| C[S+]([O-])c1sc(C=O)cc1C=O (stereo not drawn) [(70), 2-methylsulphinyl-3,5-diformylthiophene] |  | ≥ 95% |  |
| CC[S+]([O-])c1sc(C(=O)c2ccc(Cl)cc2)c(OC)c1C#N (stereo not drawn) [(76), 2-ethylsulphinyl-3-cyano-4-methoxy-5-(4-chlorobenzoyl)thiophene] |  |  | ≥ 85% |
| CC[S+]([O-])c1sc(S(C)(=O)=O)c(Cl)c1C#N (stereo not drawn) [(77), 2-ethylsulphinyl-3-cyano-4-chloro-5-methylsulphonyl-thiophene] |  | ≥ 95% |  |
| CCCCCCCC[S+]([O-])c1sc(C#N)cc1C#N (stereo not drawn) [(81), 2-n-octylsulphinyl-3,5-dicyanothiophene] | ≥ 75% |  |  |
| CC[S+]([O-])c1sc(C=O)c(Cl)c1C=O (stereo not drawn) [(83), 2-ethylsulphinyl-3,5-diformyl-4-chlorothiophene] |  | ≥ 95% |  |
| CCS(=O)(=O)c1sc(S(C)(=O)=O)c(Cl)c1C#N [(84), 2-ethylsulphonyl-3-cyano-4-chloro-5-methylsulphonylthiophene] |  | ≥ 95% |  |
| CCCC[S+]([O-])c1sc(C(=O)c2ccccc2)cc1C#N (stereo not drawn) [(90), 2-n-butylsulphinyl 3-cyano-5-benzoylthiophene] | ≥ 75% |  |  |
| CC[S+]([O-])c1sc(C(=O)c2ccccc2)c(C)c1C#N (stereo not drawn) [(91), 2-ethylsulphinyl-3-cyano-4-methyl-5-benzoylthiophene] | ≥ 75% |  |  |
| CS/C(=C(\C#N)c1ccccc1)[S+](C)[O-] (stereo not drawn) [(93), α-cyano-β-methylsulphinyl)-β-methylthio-styrene, E-isomer] | ≥ 75% | ≥ 95% |  |
